Source: the NIST ThermoML archive (doi:10.1016/j.jct.2015.08.019)
± gives the expanded uncertainty stated by the source.

Experiment: excess molar enthalpy (molar enthalpy of mixing); xn = mol fraction of the nth substance listed
Details: 473 K, 101.3 kPa, Crystal, Calvet calorimetry

**Q.** Which results are given for `O=[N+]([O-])[O-].[Tl+]` [thallium nitrate] + O=[N+]([O-])[O-].[Cs+]?
**A.** excess molar enthalpy (x2 = 0.25): 1.25 ± 0.26 kJ/mol; excess molar enthalpy (x2 = 0.5): 1.44 ± 0.3 kJ/mol; excess molar enthalpy (x2 = 0.75): 1.04 ± 0.22 kJ/mol
